Results as given in patent US4312883A, “Furocoumarin for the photochemotherapy of psoriasis and related skin diseases” (Consiglio Nazionale delle Ricerche, priority 1979, dated 1982).
Counter-ions that a name gives are not always drawn. Like-named read-outs stand apart in the source and are kept apart here.

Assays:
Solubility = format: physicochemical
[1] = test system: RNA synthesis in Ehrlich ascites tumor cells; test: Inhibition of RNA synthesis on irradiation at 365 nm; format: cell-based; conditions: relative (ang = 100)
From the text: (§1) Photobiological activity: A significant test for assessing photobiological activity of alkylangelicins is the study of their capacity to inhibit DNA and RNA synthesis in Ehrlich ascites tumor cells. In Table III the capacity of inhibition is expressed as ID50, that is the irradiation does, in terms of quanta at 365 nm, necessary to inhibit in these cells the 50% of the DNA and RNA synthesis in the presence of a constant amount of alkylangelicin. […] Moreover, in general it can be observed that in this simple biological system a close correlation exists between photobiological activity and the capacity to induce photochemical lesions in DNA, that is photoreactivity.

[2] = test system: DNA synthesis in Ehrlich ascites tumor cells; test: Inhibition of DNA synthesis (and DNA and RNA synthesis) on irradiation at 365 nm; format: cell-based; conditions: for inhibition of DNA synthesis, relative: relative (ang = 100)
From the text: as §1

DNA [3] = test: Photobinding to DNA, rate constants of the photoreactions; format: biochemical; conditions: for photobinding capacity to DNA (in words): versus angelicin; for Rate constants of the photoreactions with DNA: in vitro, UV-A irradiated; for Rate constants of the photoreactions with DNA, relative: relative (ang = 100)
From the text: (b) Determined according to F. Dall'Acqua, S. Marciani, F. Zambon and G.
Rodighiero, Photochem. Photobiol., 29,489(1979).
Photobinding capacity to DNA: The introduction of one or two methyl groups in the molecule of angelicin leads to a strong increase of the photobinding to DNA; see Table II. […] Photobiol., 29, 489 (1979).

DNA [4] = test: Capacity to form inter-strand cross-linkages in DNA; format: biochemical; conditions: (psr = 100)
Description: All these compounds were not suitable to photoinduce in DNA inter-strand cross-linkages. […] These tests were carried out according to the method of F. Bordin et al., Photochem. Photobiol., 29,1063 (1979).

skin = test: Relative skin phototoxicity; conditions: (psr = 100)
DNA [5] = test: Dark complex formation (intercalation) with DNA in the ground state, binding parameters; design: K (association constants) of the complexes with DNA: unit not given here; conditions: for K (association constants) of the complexes with DNA / 1/n (frequency of binding sites): in vitro, ground state; for K (association constants) of the complexes with DNA: McGhee and Von Hippel method; for 1/n (frequency of binding sites): molecules bound per nucleotide; for 1/n (frequency of binding sites), relative / K (association constants), relative: relative (ang = 100)
From the text: Dark complex formation: It is known from F. Dall'Acqua, et al. Chem.-Biol. Interactions 21,103 (1978) that the intercalated complex formed by furocoumarins with DNA strongly affects the successive photoaddition increasing the rate of photobinding. […] These parameters have been determined according to the method of McChee and Von Hippel, J.Mol.Biol, 86, 469 (1974).
(a) Determined according to Mc Ghee and Von Hippel, J. Mol. Biol.,

epidermal DNA synthesis [6] = test: Inhibition of epidermal DNA synthesis in the mouse in vivo after topical application and UV-A irradiation; conditions: light or radiation study, 0.01% methanol solutions, UV-A 9 J/cm^2, read-out: Percent inhibition ± standard error of epidermal DNA synthesis
Description: DNA samples were dissolved in water and their specific radioactivity determined.
Each drug substance was studied using at least six mice.

Acute toxicity in mice = conditions: mouse, in vivo, po
psoriasis = test: Topical photochemotherapy of psoriasis in patients; format: in vivo, human; conditions: for No. of patients with Excellent result / No. of patients with Fair result / No. of patients with Good result / No. of patients with Poor result: topical 0.1% w/v + UV-A; for No. of patients with Excellent result: Excellent = 90% clearance; for No. of patients with Fair result: Fair = 50-70%; for No. of patients with Good result: Good = 70-90%; for No. of patients with Poor result: Poor 40%
From the text: Clinical data: The effectiveness of certain representative alkylangelicins according to the present invention, specifically 5-methylangelicin, 4,5'-dimethylangelicin, 4'-hydroxymethyl-4,5'-dimethylangelicin, 4'-hydroxymethyl-4,5'-dimethylangelicin and 4,5-dimethylangelicin, has been tested by measuring their capacity to resolve psoriasis in various patients. For a direct comparison the efficacy of the parent unsubstituted angelicin and that of three very effective linear furocoumarins, that is 8-methoxypsoralen (8-MOP), 5-methoxypsoralen (5-MOP), and 4,5',8-trimethylpsoralen (TMP) were also tested.
In each treatment four areas of the affected skin were used;
(a) In the first area an alcohol lotion, containing 10% glycerine, of the tested compound (0.1% w/v) was applied until a concentration of […] was reached then left to evaporate by the heat of the body. After half an hour the area was irradiated with high intensity UV-A emitting low pressure mercury fluorescent lamps with a wavelength of 320-400 nm. The irradiation doses were selected in the range of 4.5-13 J/cm^2 for each application as a function of the sensitivity of the skin of the patients; when the skin sensitivity was higher, the light doses were lower and vice versa.
(b) A second area was treated with an alcohol solution of the drug as in (a) but it was covered and maintained in the dark.
(c) A third area, where the drug was not applied, was irradiated as in (a) but in general with higher UV-A doses.
(d) A fourth area was not treated at all, neither with the drug, not with UV-A.
The treatment with the alkylangenlicins referred to above was repeated 5 time a week for two or more weeks; the total number of treatments was between 8 and 20 per subject. In some cases, as for instance with 5-methylangelicin, a good clearing of psoriasis was observed after 8 treatments.
In order to avoid induction of photosensitization processes such as redness and erythema in the reference tests made with the linear furocoumarins 8-MOP, 5-MOP, TMP, lower light doses were used than in the case of alkylangelicins, the treatments were repeated at a frequency of no more than three times a week.

epidermal DNA synthesis [7] = test: Inhibition of the synthesis of epidermal DNA of the mouse in vivo after oral administration and UV-A irradiation; conditions: oral 0.25 g/Kg, UV-A 9 J/cm^2 after two hours
From the text: Considering that the topical skin tests carried out on mice to evaluate the effectiveness of these substances has yielded data which correlate well with the clinical data, such a test conveniently modified has been adopted to evaluate the effectiveness of the alkylangelicins after oral administration followed by UV-A irradiation.
In this connection experiments have been conducted using mice 20±2 g in weight, that were starved for three hours before oral administration of the alkylangelicins. Groups of 5 mice were fed a suspension of 0.5% methylcellulose in water containing the alkylangelicins of the invention at a dosage of 0.25 g/Kg. The animals were kept in the dark for two hours, that is for the time necessary for absorption, systemic distribution and localization of the drug at the level of the skin. The animals were then irradiated with UV-A light, 9 J/cm^2. Later the animals were sacrificed and the inhibition of the epidermal DNA synthesis was tested; the results obtained are reported in Table VI. The skin on the back, protected from light by a dark paper, was assumed as a control. As a reference 8-MOP, used under the same experimental conditions, was also tested. The significant activity of the alkylangelicins according to the present invention, higher than that of 8-MOP, in inhibiting the epidermal DNA synthesis in mice upon oral administration allows one to consider these compounds as also being effective for oral administration to humans for photochemotherapy of psoriasis and of other skin diseases that are characterized by cellular hyperproliferation.

[8] = test system: Salmonella typhimurium TA 100; test: Ames test; format: cell-based; conditions: Salmonella typhimurium TA 100 his G46 (uvrB^- rfa) pKM101; versus 4,5'-dimethylangelicin
[9] = Table I; cited from earlier work
[10] = known furocoumarins, Table I; cited from earlier work
DNA [11] = conditions: (psr = 100); footnote (c), reference compounds; cited from earlier work
melamin pigmentation = conditions: Table I; cited from earlier work
[12] = cited from earlier work
DNA synthesis = conditions: Table I; cited from earlier work
DNA [13] = conditions: cited from earlier work

Row | water solubility (Solubility) | photobinding capacity to DNA (in words) (DNA [3]) | SMILES | inhibition of RNA synthesis, relative [1] | inhibition of DNA synthesis, relative [2] | capacity to form interstrand cross-linkages (DNA [4]) | Relative skin phototoxicity (skin) | K (association constants) of the complexes with DNA (DNA [5]) | 1/n (frequency of binding sites) (DNA [5]) | 1/n (frequency of binding sites), relative (DNA [5]) | K (association constants), relative (DNA [5]) | inhibition in vivo at 0.01 % (epidermal DNA synthesis [6]) | Rate constants of the photoreactions with DNA (DNA [3]) | Rate constants of the photoreactions with DNA, relative (DNA [3]) | LD50 (Acute toxicity in mice) | No. of patients with Excellent result (psoriasis) | No. of patients with Fair result (psoriasis) | No. of patients with Good result (psoriasis) | No. of patients with Poor result (psoriasis) | Percent inhibition ± standard error of epidermal DNA synthesis (epidermal DNA synthesis [7]) | capacity to form interstrand cross-linkages (DNA [11]) | also measured
1 | water soluble | strongly increased photobinding capacity | Cc1oc2ccc3c(C)cc(=O)oc3c2c1COCCN(C)C [4,5'-dimethyl-4'-N,N-dimethylaminoethoxymethylangelicin] | 162 | 290 | 0 | 0 | > 10000 | > 0.15 | > 230 | > 1700 | 29.4 ± 16.2% |  |  |  |  |  |  |  |  |  | increase of K (affinity towards DNA) (DNA [5]; on introduction of a cationic moiety in addition to the two methyl groups): more than 20 times
2 | water soluble | lower than that of angelicin | Cc1oc2ccc3c(C)cc(=O)oc3c2c1CN [4,5'-dimethyl-4'-aminomethylangelicin hydrochloride] | 23.3 | 25 | 0 | 0 | 16300 | 0.255 | 404 | 2910 |  | 0.8 K × 10^-2 × min^-1 | 72 |  |  |  |  |  |  |  | capacity to inhibit the DNA and RNA synthesis (in words) ([2]; Ehrlich ascites tumor cells, versus angelicin): lower than that of angelicin
3 |  |  | Cc1cc2c(ccc3c(C)cc(=O)oc32)o1 [4,5'-dimethylangelicin] | 172 | 230 | 0 | 0 | 1410 | 0.094 | 149 | 252 | 37.6 ± 4.9% | 4.0 K × 10^-2 × min^-1 | 363 | 2500 mg/kg | 0 patients | 3 patients | 1 patients | 0 patients | 51.0 ± 8.0% |  | 
4 |  |  | Cc1cc2occc2c2oc(=O)ccc12 [5-methylangelicin] | 281 | 275 | 0 | 0 | 1560 | 0.071 | 112 | 278 | 47.5 ± 1.19% | 3.41 K × 10^-2 × min^-1 | 298 | 2000 mg/kg | 2 patients | 0 patients | 5 patients | 0 patients |  |  | mutagenic activity (Ames test) [8]: of the same order of magnitude as that of 4,5'-dimethylangelicin; efficacy in psoriasis patients (in words) (psoriasis; topical + UV-A): very active, probably more active than the same amount of 8-MOP; number of treatments to good clearing of psoriasis (psoriasis; topical + UV-A, 5 times a week, in some cases): 8 treatments
5 |  |  | COc1c2occc2cc2ccc(=O)oc12 [8-MOP, 8-methoxypsoralen, reference compound] | 93 | 249 |  | 71 | 740 | 0.128 | 203 | 132 | 61 ± 1.6% | 2.3 K × 10^-2 × min^-1 | 209 | 800 mg/kg | 3 patients | 2 patients | 3 patients | 2 patients | 39.1 ± 3.7% | 63 | Mutagenicity [9]: known, strong; Photosensitizing activity [10]: known, strong; Stimulation of melamin pigmentation (melamin pigmentation): strong, well known; Carcinogenicity (oral) ([12]; oral): weak; Carcinogenicity (topical) ([12]; topical): strong; DNA synthesis inhibiting property (DNA synthesis): known, strong; DNA intercalation property (DNA [13]; Table I): strong; Interstrand cross-linking induction in DNA (DNA [13]; Table I): strong, well known; Monoadduct forming property (DNA [13]; Table I): known, strong; Photobinding capacity to DNA (DNA [13]; known furocoumarins): known, strong
6 |  |  | O=c1ccc2cc3ccoc3cc2o1 [psoralen, reference compound] | 166 | 275 |  | 100 | 400 | 0.108 | 171 | 71.4 | 47.8 ± 7.9% | 3.8 K × 10^-2 × min^-1 | 345 |  |  |  |  |  |  | 100 | 
